In ChEMBL document CHEMBL5030527, “Novel carbohydrate-based sulfonamide derivatives as selective carbonic anhydrase II inhibitors: Synthesis, biological and molecular docking analysis” (Bioorg Med Chem Lett, 2021):

Columns and labels:
[1] = molecular target: Carbonic anhydrase 9 (Homo sapiens, UniProt Q16790); assay: Inhibition of recombinant human carbonic anhydrase 9 using 4-nitrophenylacetate as substrate
[2] = Solubility of the compound; format: physicochemical
[3] = Cytotoxicity against HCEC assessed as […] cell viability at 1% concentration by MTT assay relative to control; format: functional, Homo sapiens
[4] = Cytotoxicity against HCEC assessed as reduction in cell viability at 2% concentration by MTT assay relative to control; format: functional, Homo sapiens

Compound	IC50 [1] [nM]	solubility [2] [%]	Activity [3] [%]	Activity [4] [%]
CCCO[C@@H]1O[C@H](CO)[C@@H](O)[C@H](O)[C@H]1NC(=O)c1ccc(S(N)(=O)=O)cc1	241	2	80	77
CO[C@@H]1O[C@H](CO)[C@@H](O)[C@H](O)[C@H]1NC(=O)c1ccc(S(N)(=O)=O)cc1	90	2.5	80	77
CCO[C@@H]1O[C@H](CO)[C@@H](O)[C@H](O)[C@H]1NC(=O)c1ccc(S(N)(=O)=O)cc1	152	2.3	80	77
CC(C)O[C@@H]1O[C@H](CO)[C@@H](O)[C@H](O)[C@H]1NC(=O)c1ccc(S(N)(=O)=O)cc1	142	2	80	77
CC(=O)Nc1nnc(S(N)(=O)=O)s1 [ACETAZOLAMIDE]	–	0.21	–	–
NS(=O)(=O)c1ccc(C(=O)O)cc1 [CARZENIDE]	24000	–	–	–
CCN[C@H]1C[C@H](C)S(=O)(=O)c2sc(S(N)(=O)=O)cc21 [DORZOLAMIDE]	–	0.67	–	–

Continued, in another order:

IC50 [1] [nM]	solubility [2] [%]	Compound	Activity [3] [%]	Activity [4] [%]
227	2.5	CC(=O)N[C@@H]1O[C@H](CO)[C@@H](O)[C@H](O)[C@H]1NC(=O)c1ccc(S(N)(=O)=O)cc1	80	77
276	2.5	CCC(=O)N[C@@H]1O[C@H](CO)[C@@H](O)[C@H](O)[C@H]1NC(=O)c1ccc(S(N)(=O)=O)cc1	80	77
–	0.05	CCN[C@H]1CN(CCCOC)S(=O)(=O)c2sc(S(N)(=O)=O)cc21 [BRINZOLAMIDE]	–	–
